Legend:
Assay in all cases: combination Emax (second highest fraction inhibited in the dose matrix, 72 h); higher = more inhibition; extreme values may be limits of the assay
[1] = system: HuH-7 (Hepatocellular Carcinoma)
Method in brief: (§1)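 Bliss excess equals the observed combination effect minus the expected value EA + EB − EA·EB, where EA and EB are the effects of each agent alone. Combination Emax is the second-highest inhibition within the matrix. Inhibition was scaled from CellTiter-Glo 2.0 luminescence, with 0 set by vehicle wells and 1 by blank wells, after 72 hours of two-drug dosing of cells plated in 1536-well plates.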

[2] = system: YAPC (Pancreatic Carcinoma)
Method in brief: as §1

[3] = system: ESS-1 (Other Solid Carcinomas)
Method in brief: as §1

[4] = system: HeLa (Cervical Carcinoma)
Method in brief: as §1

[5] = system: L-428 (Hodgkin's Lymphoma)
Method in brief: as §1

[6] = system: SW1573 (Lung Adenocarcinoma)
Method in brief: as §1

[7] = system: OE21 (Esophageal Squamous Cell Carcinoma)
Method in brief: as §1

[8] = system: LS-123 (Colorectal Carcinoma)
Method in brief: as §1

[9] = system: SNU-449 (Hepatocellular Carcinoma)
Method in brief: as §1

[10] = system: LCLC-97TM1 (Non-Small Cell Lung Carcinoma)
Method in brief: as §1

[11] = system: HH (T-Cell Non-Hodgkin's Lymphoma)
Method in brief: as §1

[12] = system: ALL-PO (B-Lymphoblastic Leukemia)
Method in brief: as §1

GAMG (Glioblastoma) = system: GAMG (Glioblastoma)
Method in brief: as §1

[13] = system: SNU-16 (Gastric Carcinoma)
Method in brief: as §1

[14] = system: SAS (Oral Cavity Carcinoma)
Method in brief: as §1

[15] = system: BE-13 (T-Lymphoblastic Leukemia)
Method in brief: as §1

[16] = system: BFTC-909 (Kidney Carcinoma)
Method in brief: as §1

NCI-H2722 (Mesothelioma) = system: NCI-H2722 (Mesothelioma)
Method in brief: as §1

BPH-1 (Non-Cancerous) = system: BPH-1 (Non-Cancerous)
Method in brief: as §1

KS-1 (Glioblastoma) = system: KS-1 (Glioblastoma)
Method in brief: as §1

| SMILES | combination Emax [1] | combination Emax [2] | combination Emax [3] | combination Emax [4] | combination Emax [5] | combination Emax [6] | combination Emax [7] | combination Emax [8] | combination Emax [9] | combination Emax [10] | combination Emax [11] | combination Emax [12] | combination Emax (GAMG (Glioblastoma)) | combination Emax [13] | combination Emax [14] | combination Emax [15] | combination Emax [16] | combination Emax (NCI-H2722 (Mesothelioma)) | combination Emax (BPH-1 (Non-Cancerous)) | combination Emax (KS-1 (Glioblastoma)) |
| --- | --- | --- | --- | --- | --- | --- | --- | --- | --- | --- | --- | --- | --- | --- | --- | --- | --- | --- | --- | --- |
| C[C@@H](c1ccc2nccn2c1)n1nnc2ncc(-c3cnn(C)c3)nc21 [Savolitinib] + Cc1c2c(nn1C)CSCc1cc(n(C)n1)CSc1cc(c3ccccc3c1)OCCCc1c(C(=O)O)n(C)c3c-2c(Cl)ccc13 [AZD5991] (first compound max 1 µM, 7x7, partner max 1 µM) | 0.207 | 0.11 | 0.16 | 0.362 | 0.0947 | 0.133 | 0.355 | 0.211 | 0.154 | 0.147 | 0.879 | 1 | 0.167 | 0.947 | 0.151 | 0.383 | 0.179 | 0.2 | 0.199 | 0.132 |
| CN(CCO)CC[C@H](CSc1ccccc1)Nc1ccc(S(=O)(=O)NC(=O)c2ccc(N3CCC([C@@H](O)c4ccccc4-c4ccc(Cl)cc4)CC3)cc2)cc1S(=O)(=O)C(F)(F)F [AZD4320] + Cc1cc2ncnn2cc1Nc1ncc2c(n1)n(C1CCOCC1)c(=O)n2C [AZD7648] (first compound max 1 µM, 7x7, partner max 10 µM) | 0.279 | 0.103 | 0.502 | 0.0576 | 0.844 | 0.104 | 0.17 | – | 0.166 | 0.203 | 0.265 | 0.992 | 0.286 | 0.3 | 0.118 | 0.981 | 0.246 | 0.159 | 0.373 | 0.319 |
| Cc1cc2ncnn2cc1Nc1ncc2c(n1)n(C1CCOCC1)c(=O)n2C [AZD7648] + C=CCn1c(=O)c2cnc(Nc3ccc(N4CCN(C)CC4)cc3)nc2n1-c1cccc(C(C)(C)O)n1 [AZD1775] (first compound max 10 µM, partner max 1 µM) | 0.252 | 0.533 | 0.974 | 0.636 | 0.884 | 0.328 | 0.673 | 0.641 | 0.333 | 0.781 | 0.431 | 0.966 | 0.706 | 0.885 | 0.734 | 1 | 0.619 | 0.327 | 0.53 | 0.425 |
| C[C@@H](c1ccc2nccn2c1)n1nnc2ncc(-c3cnn(C)c3)nc21 [Savolitinib] + CN(CC[C@H](CSC1=CC=CC=C1)NC2=C(C=C(C=C2)S(=O)(=O)NC(=O)C3=CC=C(C=C3)N4CCC(CC4)[C@H](C5=CC=CC=C5C6=CC=C(C=C6)Cl)O)S(=O)(=O)C(F)(F)F)CCO [AZD4320] (first compound max 1 µM, 7x7, partner max 1 µM) | 0.265 | – | – | 0.13 | 0.773 | 0.239 | 0.101 | – | – | 0.101 | – | 0.989 | – | – | – | – | 0.29 | 0.308 | 0.346 | – |
| N#Cc1cnc(Nc2cc(NC[C@H]3CNCCO3)c(C(F)(F)F)cn2)cn1 [SRA737] + C=CCn1c(=O)c2cnc(Nc3ccc(N4CCN(C)CC4)cc3)nc2n1-c1cccc(C(C)(C)O)n1 [AZD1775] (first compound max 10 µM, partner max 1 µM) | – | 0.495 | 1 | – | – | – | – | 0.722 | 0.562 | – | 0.475 | – | 0.726 | 0.995 | 0.824 | 0.993 | – | – | – | 0.499 |
| N#Cc1cnc(Nc2cc(NC[C@H]3CNCCO3)c(C(F)(F)F)cn2)cn1 [SRA737] + O=c1[nH]cc(F)c(=O)[nH]1 [5-Fluorouracil] (first compound max 10 µM, 7x7, partner max 20 µM) | – | 0.406 | 0.927 | – | – | – | – | 0.414 | 0.293 | – | 0.188 | – | 0.315 | 0.961 | 0.456 | 0.863 | – | – | – | 0.281 |
| CN(CCO)CC[C@H](CSc1ccccc1)Nc1ccc(S(=O)(=O)NC(=O)c2ccc(N3CCC([C@@H](O)c4ccccc4-c4ccc(Cl)cc4)CC3)cc2)cc1S(=O)(=O)C(F)(F)F [AZD4320] + CC(=O)O[C@H]1C(=O)[C@@]2(C)[C@H]([C@H](OC(=O)c3ccccc3)[C@]3(O)C[C@H](OC(=O)[C@H](O)[C@@H](NC(=O)c4ccccc4)c4ccccc4)C(C)=C1C3(C)C)[C@]1(OC(C)=O)CO[C@@H]1C[C@@H]2O [Paclitaxel] (first compound max 1 µM, 7x7, partner max 3 µM) | – | 0.395 | 1 | – | – | – | – | – | 0.414 | – | 0.837 | – | 1 | 1 | 0.971 | 1 | – | – | – | 0.937 |
| N#Cc1cnc(Nc2cc(NC[C@H]3CNCCO3)c(C(F)(F)F)cn2)cn1 [SRA737] + Nc1ccn([C@@H]2O[C@H](CO)[C@@H](O)C2(F)F)c(=O)n1 [Gemcitabine] (first compound max 10 µM, 7x7, partner max 0.3 µM) | – | 0.655 | 1 | – | – | – | – | 0.759 | 0.515 | – | 0.634 | – | 0.892 | 1 | 0.956 | 1 | – | – | – | 0.5 |
| CN(CCO)CC[C@H](CSc1ccccc1)Nc1ccc(S(=O)(=O)NC(=O)c2ccc(N3CCC([C@@H](O)c4ccccc4-c4ccc(Cl)cc4)CC3)cc2)cc1S(=O)(=O)C(F)(F)F [AZD4320] + C[C@@H]1COCCN1C2=NC(=NC(=C2)C3(CC3)[S@](=N)(=O)C)C4=C5C=CNC5=NC=C4 [AZD6738] (first compound max 1 µM, 7x7, partner max 10 µM) | 0.725 | 0.251 | 0.992 | 0.717 | 0.956 | 0.555 | 0.84 | – | 0.19 | 0.87 | 0.404 | 1 | 0.694 | 0.994 | 0.902 | 1 | 0.997 | 0.503 | 0.441 | 0.68 |
| COc1nnc2ccc(N3CCC(c4ccc(OCCN5CCN(C)C(=O)[C@H]5C)cc4)CC3)nn12 [AZD5153] + CN(CC[C@H](CSC1=CC=CC=C1)NC2=C(C=C(C=C2)S(=O)(=O)NC(=O)C3=CC=C(C=C3)N4CCC(CC4)[C@H](C5=CC=CC=C5C6=CC=C(C=C6)Cl)O)S(=O)(=O)C(F)(F)F)CCO [AZD4320] (first compound max 1 µM, 7x7, partner max 1 µM) | 0.786 | – | – | 0.433 | 0.943 | 0.61 | 0.739 | – | – | 0.726 | – | 1 | – | – | – | – | 0.71 | 0.774 | 0.928 | – |
| CN(CCO)CC[C@H](CSc1ccccc1)Nc1ccc(S(=O)(=O)NC(=O)c2ccc(N3CCC([C@@H](O)c4ccccc4-c4ccc(Cl)cc4)CC3)cc2)cc1S(=O)(=O)C(F)(F)F [AZD4320] + CCN(CCO)CCCOc1ccc2c(Nc3cc(CC(=O)Nc4cccc(F)c4)[nH]n3)ncnc2c1 [AZD2811] (first compound max 1 µM, 7x7, partner max 1 µM) | 0.219 | 0.0932 | 0.923 | 0.192 | 0.847 | 0.62 | 0.111 | – | 0.154 | 0.366 | 0.348 | 1 | 0.845 | 0.747 | 0.105 | 1 | 0.514 | 0.401 | 0.893 | 0.464 |
| CN(CCO)CC[C@H](CSc1ccccc1)Nc1ccc(S(=O)(=O)NC(=O)c2ccc(N3CCC([C@@H](O)c4ccccc4-c4ccc(Cl)cc4)CC3)cc2)cc1S(=O)(=O)C(F)(F)F [AZD4320] + Nc1ccn([C@@H]2O[C@H](CO)[C@@H](O)C2(F)F)c(=O)n1 [Gemcitabine] (first compound max 1 µM, 7x7, partner max 0.3 µM) | – | 0.535 | 0.998 | – | – | – | – | – | 0.367 | – | 0.293 | – | 0.889 | 0.934 | 0.983 | 1 | – | – | – | 0.304 |
| Cc1cc2ncnn2cc1Nc1ncc2c(n1)n(C1CCOCC1)c(=O)n2C [AZD7648] + COc1cc([C@@H]2c3cc4c(cc3[C@@H](O[C@@H]3O[C@@H]5CO[C@@H](C)O[C@H]5[C@H](O)[C@H]3O)[C@H]3COC(=O)[C@H]23)OCO4)cc(OC)c1O [Etoposide] (first compound max 10 µM, 7x7, partner max 10 µM) | – | 0.531 | 1 | – | – | – | – | 0.884 | 0.296 | – | 0.141 | – | 0.872 | 0.794 | 0.985 | 0.976 | – | – | – | 0.431 |
